Data reported in ChEMBL document CHEMBL3867426, “Synthesis and biological evaluation of 6-fluoro-3-phenyl-7-piperazinyl quinolone derivatives as potential topoisomerase I inhibitors” (Eur J Med Chem, 2016).
Calls of active or inactive are those of the source. No cut-off for these calls is given here.

Legend:
[1] = Antiproliferative activity against human BGC823 cells after 48 hrs by MTT assay; assay type: functional, cell-based; conditions: BGC-823, 48 h
cells [2] = conditions: Homo sapiens, HeLa, 48 h
cells [3] = conditions: Homo sapiens, HepG2, 48 h
cells [4] = conditions: Homo sapiens, A549, 48 h
[5] = target: T1, DNA topoisomerase 1 (Homo sapiens) (UniProt P11387); experiment: Inhibition of DNA topoisomerase 1 (unknown origin)-mediated relaxation of supercoiled pBR322 plasmid DNA at 100 uM after 30 mins by agarose gel electrophoresis
T1 sequence (whole entry): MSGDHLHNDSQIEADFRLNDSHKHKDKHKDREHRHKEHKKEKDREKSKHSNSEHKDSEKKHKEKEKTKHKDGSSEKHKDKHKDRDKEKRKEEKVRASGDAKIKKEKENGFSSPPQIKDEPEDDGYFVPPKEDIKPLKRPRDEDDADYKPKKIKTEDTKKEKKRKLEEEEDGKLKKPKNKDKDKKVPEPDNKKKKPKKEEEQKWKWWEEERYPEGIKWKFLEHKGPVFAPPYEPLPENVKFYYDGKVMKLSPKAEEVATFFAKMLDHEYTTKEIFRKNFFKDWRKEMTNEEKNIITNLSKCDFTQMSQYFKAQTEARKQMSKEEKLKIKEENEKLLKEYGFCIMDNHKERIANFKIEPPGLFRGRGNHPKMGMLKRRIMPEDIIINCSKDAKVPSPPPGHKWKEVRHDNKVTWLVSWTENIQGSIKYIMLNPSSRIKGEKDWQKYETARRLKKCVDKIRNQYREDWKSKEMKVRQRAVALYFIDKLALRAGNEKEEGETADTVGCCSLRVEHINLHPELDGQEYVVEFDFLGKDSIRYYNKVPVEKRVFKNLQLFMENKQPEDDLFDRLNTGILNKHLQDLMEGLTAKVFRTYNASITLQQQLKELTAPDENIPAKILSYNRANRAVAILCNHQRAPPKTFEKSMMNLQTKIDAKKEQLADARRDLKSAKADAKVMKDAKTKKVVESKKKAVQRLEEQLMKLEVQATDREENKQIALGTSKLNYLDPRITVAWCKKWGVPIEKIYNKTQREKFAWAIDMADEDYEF

[6] = Solubility of the compound in Tris/glycine/SDS buffer at pH 7.9; assay type: physicochemical
[7] = Cell cycle arrest in human A549 cells assessed as accumulation at S phase at 0.5 uM after 24 hrs by propidium iodide staining based flow cytometric analysis (reference value: 26.40%); assay type: functional
[8] = Antitumor activity against human A549 cells xenografted in BALB/c nude mouse assessed as reduction in tumor volume at 20 mg/kg, iv administered once every 3 days measured on day 18 post dose; assay type: functional
[9] = Cell cycle arrest in human A549 cells assessed as accumulation at G1 phase at 0.5 uM after 24 hrs by propidium iodide staining based flow cytometric analysis (reference value: 46.14%); assay type: functional
[10] = Cell cycle arrest in human A549 cells assessed as accumulation at G2 phase at 0.5 uM after 24 hrs by propidium iodide staining based flow cytometric analysis (reference value: 22.51%); assay type: functional
[11] = Antitumor activity against human A549 cells xenografted in BALB/c nude mouse assessed as reduction in tumor volume at 20 mg/kg, iv administered once every 3 days measured on day 3 post dose; assay type: functional
[12] = Antitumor activity against human A549 cells xenografted in BALB/c nude mouse assessed as reduction in tumor volume at 20 mg/kg, iv administered once every 3 days measured on day 6 post dose; assay type: functional
[13] = Antitumor activity against human A549 cells xenografted in BALB/c nude mouse assessed as reduction in tumor volume at 20 mg/kg, iv administered once every 3 days measured on day 9 post dose; assay type: functional
[14] = Antitumor activity against human A549 cells xenografted in BALB/c nude mouse assessed as reduction in tumor volume at 20 mg/kg, iv administered once every 3 days measured on day 12 post dose; assay type: functional
[15] = Antitumor activity against human A549 cells xenografted in BALB/c nude mouse assessed as reduction in tumor volume at 20 mg/kg, iv administered once every 3 days measured on day 15 post dose; assay type: functional
[16] = Antitumor activity against human A549 cells xenografted in BALB/c nude mouse assessed as reduction in tumor volume at 20 mg/kg, iv administered once every 3 days measured on day 21 post dose; assay type: functional
[17] = Antitumor activity against human A549 cells xenografted in BALB/c nude mouse assessed as reduction in tumor volume at 20 mg/kg, iv administered once every 3 days measured on day 23 post dose; assay type: functional
[18] = Antitumor activity against human A549 cells xenografted in BALB/c nude mouse assessed as tumor growth inhibition at 20 mg/kg, iv administered once every 3 days for 23 days relative to control; assay type: functional; conditions: read-out: TGI
Mus musculus [19] = experiment: Toxicity in BALB/c nude mouse xenografted with human A549 cells assessed as change in body weight at 20 mg/kg, iv administered once every 3 days for 23 days measured twice per week during compound dosing; assay type: organism-based; conditions: in vivo
Mus musculus [20] = experiment: Toxicity in BALB/c nude mouse xenografted with human A549 cells assessed as mortality at 20 mg/kg, iv administered once every 3 days for 23 days; assay type: organism-based; conditions: in vivo
[21] = Solubility of the compound in pH 7.9 Tris/glycine/SDS buffer at 50 uM; assay type: physicochemical; conditions: pH 7.9, 50 µM

Row | SMILES | IC50 [1] | IC50 (cells [2]) | IC50 (cells [3]) | IC50 (cells [4]) | inhibition [5] | solubility [6] | also measured
1 | CN1CCN(c2cc3c(cc2F)c(=O)c(-c2cccc(Cl)c2)cn3C2CC2)CC1 | 20.2 µM | 15.8 µM | 26.5 µM | 1.34 µM |  |  | 
2 | CCn1cc(-c2ccccc2)c(=O)c2cc(F)c(N3CCNCC3)cc21 | 75.4 µM | 35.1 µM | 30.1 µM | 10.8 µM |  |  | 
3 | O=c1c(-c2cccc(F)c2)cn(C2CC2)c2cc(N3CCNCC3)c(F)cc12 | 12 µM | 9.16 µM | 7.38 µM | 1.1 µM | Active | > 400 µM | 
4 | COc1ccc(-c2cn(C3CC3)c3cc(N4CCNCC4)c(F)cc3c2=O)cc1 | 18.9 µM | 16.5 µM | 20.8 µM | 1.87 µM | Active | > 400 µM | 
5 | CCn1cc(-c2ccc(F)cc2)c(=O)c2cc(F)c(N3CCNCC3)cc21 | 69.6 µM | 60.9 µM | 56.2 µM | 11.4 µM |  |  | 
6 | CCn1cc(-c2ccc(C#N)cc2)c(=O)c2cc(F)c(N3CCNCC3)cc21 | 18.7 µM | 14.6 µM | 12.6 µM | 1.09 µM |  |  | 
7 | CCn1cc(-c2cccc(Cl)c2)c(=O)c2cc(F)c(N3CCNCC3)cc21 | 18.4 µM | 16.1 µM | 15.3 µM | 0.78 µM |  |  | 
8 | O=c1c(-c2cccc(Cl)c2)cn(C2CC2)c2cc(N3CCNCC3)c(F)cc12 | 0.61 µM | 0.89 µM | 0.86 µM | 0.11 µM | Active | > 400 µM | Activity [7]: 31.2%; T/C [8]: 62.96%; Activity [9]: 44%; Activity [10]: 17.7%; T/C [11]: 87.18%; T/C [12]: 95.42%; T/C [13]: 85.54%; T/C [14]: 58.03%; T/C [15]: 76.4%; T/C [16]: 73.07%; T/C [17]: 74.32%; inhibition in vivo at 20 mg/kg [18]: 29.2%; Activity (Mus musculus [19]): Non-Toxic; Activity (Mus musculus [20]): Non-Toxic
9 | CCn1cc(-c2ccc(Cl)cc2)c(=O)c2cc(F)c(N3CCNCC3)cc21 | 14.6 µM | 15.4 µM | 24 µM | 1.25 µM |  |  | 
10 | CCn1cc(-c2nc3ccc([N+](=O)[O-])cc3o2)c(=O)c2cc(F)c(N3CCNC(C)C3)c(F)c21 (configuration not stated) | 2.74 µM | 2.98 µM | 2.65 µM | 1.47 µM |  |  | solubility [21]: Insoluble
11 | COc1cccc(-c2cn(C3CC3)c3cc(N4CCNCC4)c(F)cc3c2=O)c1 | 0.69 µM | 0.92 µM | 0.91 µM | 0.12 µM | Active | > 400 µM | Activity [7]: 32.2%; T/C [8]: 68.69%; Activity [9]: 48.2%; Activity [10]: 11.8%; T/C [11]: 140.57%; T/C [12]: 114.41%; T/C [13]: 118.67%; T/C [14]: 85.88%; T/C [15]: 73.12%; T/C [16]: 71.52%; T/C [17]: 64.72%; inhibition in vivo at 20 mg/kg [18]: 42.8%; Activity (Mus musculus [19]): Non-Toxic; Activity (Mus musculus [20]): Non-Toxic
12 | O=c1c(-c2ccc(F)cc2)cn(C2CC2)c2cc(N3CCNCC3)c(F)cc12 | 15.1 µM | 14.9 µM | 10.6 µM | 1.68 µM | Active | > 400 µM | 
13 | COc1cccc(-c2cn(C3CC3)c3cc(N4CCN(C)CC4)c(F)cc3c2=O)c1 | 20.9 µM | 14.8 µM | 25.4 µM | 1.12 µM |  |  | 
14 | O=c1c(-c2ccccc2)cn(C2CC2)c2cc(N3CCNCC3)c(F)cc12 | 7.86 µM | 9.99 µM | 8.65 µM | 0.5 µM | Active | > 400 µM | 
15 | CC[C@@]1(O)C(=O)OCc2c1cc1n(c2=O)Cc2cc3cc(O)ccc3nc2-1 [HYDROXYCAMPTOTHECIN] |  |  |  |  |  |  | T/C [8]: 23.92%; T/C [11]: 91.99%; T/C [12]: 68.37%; T/C [13]: 54.55%; T/C [14]: 29.44%; T/C [15]: 27.97%; T/C [16]: 20%; T/C [17]: 21.68%; Activity (Mus musculus [19]): Toxic; Activity (Mus musculus [20]): Toxic
16 | CC[C@@]1(O)C(=O)OCc2c1cc1n(c2=O)Cc2cc3ccccc3nc2-1 [CAMPTOTHECIN] | 1.27 µM | 1.41 µM | 1.52 µM | 0.46 µM |  |  | Activity [7]: 48.1%; Activity [9]: 33.2%; Activity [10]: 11.3%
17 | CCn1cc(-c2ccc(OC)cc2)c(=O)c2cc(F)c(N3CCNCC3)cc21 | 46.1 µM | 69 µM | 57.9 µM | 11.6 µM |  |  | 
18 | CCn1cc(-c2cccc(OC)c2)c(=O)c2cc(F)c(N3CCNCC3)cc21 | 14.7 µM | 12.2 µM | 13 µM | 0.8 µM |  |  | 
19 | CCn1cc(-c2cccc(F)c2)c(=O)c2cc(F)c(N3CCNCC3)cc21 | 27.3 µM | 21.9 µM | 27.8 µM | 3.06 µM |  |  | 
20 | O=c1c(-c2ccc(Cl)cc2)cn(C2CC2)c2cc(N3CCNCC3)c(F)cc12 | 12.9 µM | 9.3 µM | 8.02 µM | 0.65 µM | Active | > 400 µM | 
